Patent US20190209506A1, “METHODS OF REDUCING OR PREVENTING OXIDATION OF LDL OR LIPID MEMBRANES IN A SUBJECT IN NEED THEREOF” (Amarin Pharmaceuticals Ireland Limited, priority 2018, published 2019)
“And” between values parts separate entries of the source, which are not always exact repeats. Identical values can stand only once.

Experiments:
[1] = Membrane cholesterol domain structural integrity, x-ray diffraction (Example 9); details: D/P mole ratio 1:30, C/P 1.5:1
Procedure: Multilamellar vesicles (MLVs) were prepared as binary mixtures that include palmitoyloleoylphosphatidylcholine (POPC) (1.0 mg total phospholipid per sample) and cholesterol at an elevated cholesterol-to-phospholipid (C/P) mole ratio of 1.5:1. […] Samples were shell-dried under nitrogen gas and placed under vacuum for 3 hours to remove residual solvent at room temperature. After desiccation, each sample was resuspended in saline buffer (0.5 mM HEPES, 154 mM NaCl, pH 7.3) to yield a final phospholipid concentration of 2.5 mg/mL. Lipid suspensions were then vortexed for 3 minutes at ambient temperature to form MLVs.
Briefly, a 100 μL aliquot of each MLV preparation (containing 250 μg MLV) was transferred to a Lucite® sedimentation cell fitted with an aluminum foil substrate designed to collect MLVs into a single membrane pellet upon centrifugation. Samples were then loaded into a Sorvall AH-629 swinging bucket rotor (DuPont Corp., Wilmington, Del.) and centrifuged at 35,000 g, 5° C., for 90 minutes.
After centrifugal orientation, sample supernatants were aspirated and aluminum foil substrates, each supporting a single membrane pellet, were removed from the sedimentation cells. Sample pellets were dried for 5-10 minutes at ambient conditions, mounted onto curved glass supports, and placed in hermetically-sealed, brass or glass containers (for immediate analysis or temporary storage, respectively). All x-ray diffraction experiments were conducted at 20° C., 74% relative humidity. The latter was established by exposing membrane samples to saturated solutions of […] (K2C4H4O6.½H2O) for at least 1 hour prior to experimental analysis.
Oriented membrane samples were aligned at grazing incidence with respect to a collimated, mono-chromatic CuKα x-ray beam (Kα1 and Kα2 unresolved; λ=1.54 Å) produced by a Rigaku Rotaflex RU-200, high-brilliance microfocus generator (Rigaku-MSC, The Woodlands, Tex.) as previously described (Mason et al., Biophys. J., vol. 55(4), pages 769-778 (1989)). The samples were initially subjected to x-ray diffraction analysis at least 12 hours after formation of the membrane pellets and retested for up to several days. Analytical x-rays were generated by electron bombardment of a rotating copper anode and are filtered through a thin nickel foil to provide monochromatic radiation (λ=1.54 Å). Collimation of the x-ray beam was achieved using a single Franks mirror. Diffraction data were collected on a one-dimensional, position-sensitive electron detector (Hecus X-ray Systems, Graz, Austria) at a sample-to-detector distance of 150 mm from the sample site.
The d-space for any given membrane multi bilayer is a measurement of the unit cell periodicity of the membrane lipid bilayer (e.g., the distance from the center of one lipid bilayer to the next including surface hydration), and is calculated from Bragg's Law, hλ=2d sin θ, where h is the diffraction order, λ is the wavelength of the x-ray radiation (1.54 Å), d is the membrane lipid bilayer unit cell periodicity, and θ is the Bragg angle equal to one-half the angle between the incident beam and scattered beam.
The presence of cholesterol domains in a given membrane sample results in the production of distinct Bragg (diffraction) peaks having singular periodicity values of 34 and 17 Å (typically referred to as first- and second-order cholesterol domain peaks). Under the specific temperature and relative humidity conditions established for these experiments, the second-order, 17 Å cholesterol domain peak was well-delineated from other, neighboring cholesterol and phospholipid diffraction peaks and was thus used to quantitate relative cholesterol domain peak intensity. Routines written in Origin 8.6 (OriginLab Corporation, Northampton, Mass.) were used to determine total peak area (associated with all diffraction peaks in a given pattern) against which the second-order cholesterol domain peak was normalized.

human sdLDL [2] = assay: Copper-induced sdLDL oxidation with fatty acids, TBARS/MDA (Example 14); type: biochemical; details: 1.0 μM; for effect on lipoprotein oxidation compared to vehicle / inhibition of lipoprotein oxidation versus vehicle: 40 minutes; for effect on oxidation: 60 minutes
Procedure: Venous blood was collected from healthy volunteers into vacutainer tubes. Plasma was separated by centrifugation at 3000 g for 25 min at 4° C. and adjusted to a density of 1.020 g/mL with KBr. sdLDL was isolated from the plasma of healthy volunteers by iodixanol density gradient ultracentrifugation and adjusted to a final apolipoprotein concentration of 2 mg/mL. An aliquot of sdLDL (50 μL) was incubated with either 10 μL vehicle (ethanol) or 10 μL FA (EPA, ETE, AA, EA, DHA, DPA, ALA, LA or SA) treatment stock solution (100 μM) for 30 min at 37° C. Oxidation was initiated with addition of initiator CuSO4 (10.0 μM). At certain time points (0, 40, 60, and 120 minutes), […] were removed from each subfraction and combined with 1.0 mL thiobarbituric acid (0.5%), 10 μL trichloroacetic acid (10%), 10 μL butylated hydroxytoluene (BHT; 35 mM in ethanol), and 10 μL ethylenediaminetetraacetic acid (EDTA; 5 mM). Sample aliquots were incubated at 100° C. for 30 min and then assayed for the formation of thiobarbituric acid reactive substances (TBARS), which have a molar absorptivity (ε) value of 1.56×105 M^−1 cm^−1 at 532 nm and are largely derived from the reaction of thiobarbituric acid with MDA, a reactive aldehyde produced by sdLDL oxidation. Sample TBARS concentrations were determined spectrophotometrically by measuring sample absorbances against a standard curve derived from the hydrolysis of 1,1,3,3-tetramethoxypropane.

[3] = LOOH formation in membrane vesicles, fatty acid comparison (Example 16); type: biochemical; details: 5 μM; 0.1 μM copper sulfate, 48 hours
Procedure: Iodometric approaches were used to measure in vitro LOOH formation in membrane vesicles reconstituted as binary mixtures of cholesterol and dilinoleoyl phosphatidylcholine. Vesicles were prepared at a cholesterol-to-phospholipid mole ratio of 0.6:1 and subjected to autoxidation (e.g., lipid oxidation) at 37° C. Lipid oxidation was stimulated with 0.1 μM copper sulfate for 48 hours. All FAs were delivered at 5 and 10 μM.

human sdLDL [4] = assay: Glucose-induced sdLDL oxidation, MDA/TBARS (Example 10); type: biochemical; details: 10 μM; glucose 200 mg/dL; 1 hr
Procedure: Vitamin E (α-tocopherol) purchased from Sigma-Aldrich was prepared in ethanol at 1.0 mM (ε=3.06×10^4M^−1 cm^−1 at 294 nm) prior to experimental use. Test compounds were further diluted in ethanol or aqueous buffer as needed. Phosphate Buffered Saline (PBS) purchased from Sigma-Aldrich was prepared in double distilled water at 10 mM (138 mM NaCl, 2.7 mM KCl, pH 7.4). Glucose prepared in PBS was added to test samples to achieve a final concentration of 11.0 mM (200 mg/dL).
LDL and sdLDL were isolated from the plasma of healthy volunteers by iodixanol density gradient ultracentrifugation and adjusted to a final apolipoprotein concentration of 10 mg/mL. […] Sample aliquots were incubated at 100° C. for 30 minutes and then assayed for the formation of thiobarbituric acid-reactive substances (TBARS), having a molar absorptivity (ε) value of 1.56×10^5 M^−1 cm^−1 at 532 nm and were derived principally from the reaction of thiobarbituric acid with malondialdehyde (MDA). Lipid oxidation was measured by the colorimetric detection of malondialdehyde (MDA), a marker of oxidative stress.

human LDL = assay: Copper-induced oxidation of unfractionated LDL, TBARS (Example 7); type: biochemical; details: 10 μM; 1 hour
Procedure: An experiment to study the antioxidant effect of EPA in LDL and small dense LDL (“sdLDL”) was performed. LDL and sdLDL were isolated from the plasma of healthy volunteers by iodixanol density gradient ultracentrifugation, and adjusted to a final apolipoprotein concentration of 2 mg/mL. […] Vitamin E was also incubated with sample aliquots as a positive control.

human sdLDL [5] = assay: Copper-induced sdLDL oxidation, TBARS (Example 7); type: biochemical; details: 10 μM; 1 hour
Procedure: An experiment to study the antioxidant effect of EPA in LDL and small dense LDL (“sdLDL”) was performed. LDL and sdLDL were isolated from the plasma of healthy volunteers by iodixanol density gradient ultracentrifugation, and adjusted to a final apolipoprotein concentration of 2 mg/mL. […] Lipid oxidation was initiated with 10 μM CuSO4 and monitored by the colorimetric detection of thiobarbituric acid reactive substances (TBARS) for 1 hr. Vitamin E was also incubated with sample aliquots as a positive control.

Compound | % change Vs control (cholesterol domain peak intensity) [1] | Relative Cholesterol Domain Peak Intensity [1] | effect on lipoprotein oxidation compared to vehicle (human sdLDL [2]) | MDA Equivalents (Mean ± SD) (human sdLDL [2]; time point 0 min) [µM] | MDA Equivalents (Mean ± SD) (human sdLDL [2]; time point 40 min) [µM] | MDA Equivalents (Mean ± SD) (human sdLDL [2]; time point 60 min) [µM] | MDA Equivalents (Mean ± SD) (human sdLDL [2]; time point 120 min) [µM] | also measured
CCCCC/C=C\C/C=C\C/C=C\C/C=C\CCCC(=O)O [AA, arachidonic acid] | −45.2% and −46.8 ± 15.2% | 22.5 ± 4.3 | failed to inhibit lipoprotein oxidation | 0.67 ± 0.06 | 10.89 ± 0.35 | 11.86 ± 0.46 | 12.88 ± 0.60 | –
CC/C=C\C/C=C\C/C=C\CCCCCCCC(=O)O [ALA, α-linolenic acid] | −46.8% and −45.2 ± 11.3% | 23.2 ± 0.6 | – | 0.40 ± 0.06 | 8.91 ± 0.24 | 11.48 ± 0.18 | 12.94 ± 0.40 | reduction of LOOH levels compared to the vehicle [3]: 27%; inhibition of lipoprotein oxidation versus vehicle (human sdLDL [2]): 16% and 15%; effect on oxidation (human sdLDL [2]): failed to inhibit oxidation at 60 minutes
CCCCCCCCCCCCCCCCCCCC(=O)O [EA, eicosanoic acid] | – | – | did not completely inhibit oxidation compared to vehicle | 1.06 ± 0.09 | 11.27 ± 0.28 | 11.65 ± 0.65 | 13.22 ± 0.68 | –
CCCCC/C=C\C/C=C\CCCCCCCC(=O)O [LA, linoleic acid] | – | – | did not completely lipoprotein oxidation | 0.57 ± 0.12 | 10.74 ± 0.27 | 11.89 ± 0.30 | 12.55 ± 0.78 | –
CCCCCCCC/C=C\CCCCCCCC(=O)O [OA, oleic acid] | – | – | did not completely lipoprotein oxidation | 0.78 ± 0.13 | 10.98 ± 0.36 | 12.00 ± 0.19 | 12.57 ± 0.38 | –
CCCCCCCCCCCCCCCCCC(=O)O [SA, stearic acid] | – | – | did not completely inhibit oxidation compared to vehicle | 0.78 ± 0.01 | 10.60 ± 0.21 | 12.07 ± 0.23 | 12.33 ± 0.10 | –
Cc1ccc(C)c(OCCCC(C)(C)C(=O)O)c1 [gemfibrozil] | 11% | 46.9±12.6 | – | – | – | – | – | effect on glucose-induced sdLDL oxidation (human sdLDL [4]): did not inhibit glucose-induced sdLDL oxidation; % change Vs control (cholesterol domain peak intensity) ([1]; listed as Gemfib): −10.9 ± 43.3%; Relative Cholesterol Domain Peak Intensity ([1]; listed as Gemfib): 46.9 ± 12.6; effect on unfractionated LDL oxidation (human LDL): no significant effect on unfractionated LDL oxidation; effect on sdLDL oxidation compared to vehicle-treated controls (human sdLDL [5]): no significant effect on sdLDL oxidation
CC1(C)[C@@H](O[C@H]2O[C@H](C(=O)O)[C@@H](O)[C@H](O)[C@H]2O[C@@H]2O[C@H](C(=O)O)[C@@H](O)[C@H](O)[C@H]2O)CC[C@]2(C)[C@H]3C(=O)C=C4[C@@H]5C[C@@](C)(C(=O)O)CC[C@]5(C)CC[C@@]4(C)[C@]3(C)CC[C@@H]12 [glycyrrhizin] | −54.9 ± 12.3% | 19.1±1.2 | – | – | – | – | – | reduction in cholesterol domain peaks compared to vehicle [1]: 54.9%; Relative Cholesterol Domain Peak Intensity ([1]; listed as Glyc): 19.1 ± 1.2
O=C(O)c1cccnc1 [niacin, nicotinic acid] | −35% | 27.5±12.2 | – | – | – | – | – | effect on glucose-induced sdLDL oxidation (human sdLDL [4]): did not inhibit glucose-induced sdLDL oxidation; % change Vs control (cholesterol domain peak intensity) ([1]; listed as Niacin): −35.0 ± 30.8%; Relative Cholesterol Domain Peak Intensity ([1]; listed as Niacin): 27.5 ± 12.2; effect on unfractionated LDL oxidation (human LDL): no significant effect on unfractionated LDL oxidation; effect on sdLDL oxidation compared to vehicle-treated controls (human sdLDL [5]): no significant effect on sdLDL oxidation
eicosatrienoic acid [ETE] | – | – | – | 0.40 ± 0.11 | 7.19 ± 0.43 | 10.90 ± 0.28 | 12.57 ± 0.15 | reduction of LOOH levels compared to the vehicle [3]: 36%; inhibition of lipoprotein oxidation versus vehicle (human sdLDL [2]): 32%; effect on oxidation (human sdLDL [2]): failed to inhibit oxidation at 60 minutes
